What was measured:
[1] = First acid dissociation constant of the added acid; type: physicochemical; conditions: in water at 25°C
Method: The organic acid preferably has a first acid dissociation constant of preferably 4.0 to 5.0, more preferably 4.1 to 4.8, and further preferably 4.2 to 4.5. […] In the present invention, the term "first acid dissociation constant" indicates an acid dissociation constant in water at 25°C and is a value measured, for example, by acid-base titration, absorption spectroscopy, or capillary electrophoresis.

[2] = Evaluation of solubility of acids in glycerol (visual); type: physicochemical; conditions: for Solubility (-): 10 mg of acid in 1,000 mg of glycerol at 25°C, visual, 5 grades
Method: The organic acid is preferably soluble in the aerosol former at 25°C. […] When the resulting solution is colorless and transparent or the majority of the organic acid added is invisible due to dissolution, the organic acid is determined as "soluble." Since a solution of a polyol, such as glycerol, is difficult to measure at room temperature due to the high viscosity, it is desirable to observe the solution after appropriately dissolving once at a high temperature, followed by cooling to room temperature.
The evaluation was made by 5 grades from 1 of "no dissolution" to 5 of "complete dissolution." Herein, a grade of 3 or higher was regarded as "soluble."

SMILES	First acid dissociation constant (-) [1]	Solubility (-) [2]	Solubility in glycerol as an aerosol former (in words) ([2]; 25°C)
O=C(O)CCCCC(=O)O [Adipic acid]	4.42		
CC(=O)CCC(=O)O [Levulinic acid]	4.44	5	soluble
CCCCCCCCCCCCCCCCCCC(=O)O [Nonadecanoic acid]	5.10	1	
CC(=O)C(=O)O [Pyruvic acid]	2.50	5	

Reference: patent publication EP3949771B1, “HEAT-NOT-BURN SMOKING ARTICLE, METHOD FOR USING SAME, AND HEAT-NOT-BURN SMOKING SYSTEM” (Japan Tobacco Inc., priority 2019, dated 2020)
